According to publication PMC8145596, “Novel Chemically Modified Curcumin (CMC) Derivatives Inhibit Tyrosinase Activity and Melanin Synthesis in B16F10 Mouse Melanoma Cells” (Biomolecules, 2021):
Entries after “also recorded” stand apart in the source; their conditions may differ. Where two headings read alike, the source gives them in different places.

Columns and labels:
mushroom tyrosinase = mushroom tyrosinase (Agaricus bisporus, UniProt C7FF04); experiment: Diphenolase activity assay of mushroom tyrosinase (L-DOPA substrate); type: biochemical; details: for mechanism of inhibition of diphenolase activity: L-B and Dixon plots, nonlinear curve fitting; for Ki: read-out: apparent Ki, diphenolase (L-DOPA); for diphenolase inhibitory potency: compared with CMC2.24
Method: The direct effects of the compounds on the diphenolase activity of tyrosinase were tested using mushroom tyrosinase with a fixed concentration of L-DOPA as the substrate. Briefly, 80 µL of each compound prepared at different concentrations in 50 mM sodium phosphate buffer (pH 6.8) was added to wells of a 96-well microplate, followed by 100 µL of freshly prepared substrate solution (3 mM L-DOPA in buffer). The reaction was initiated by adding 20 µL of mushroom tyrosinase (final concentration of enzyme in wells was 3.5 µg/mL). The production of Dopachrome was monitored by measuring the absorbance at 475 nm every 30 s for a period of 30 min at 30 °C, using a microplate reader in the kinetic mode. The slopes of the plots of absorbance vs. time were calculated for comparison of enzyme activity in the presence of each of the inhibitors to that of the inhibitor-free control.
In order to study the mechanism of inhibition of tyrosinase activity by the compounds as a function of substrate concentration, we conducted a kinetic study of monophenolase and diphenolase activities at multiple concentrations of substrates. For the monophenolase activity assay, the final concentration of enzyme was 12.5 µg/mL and the final substrate concentrations were 0.125, 0.25, 0.5 and 1 mM, while for diphenolase activity assay, the final concentration of enzyme was 3.5 µg/mL and the final substrate concentrations ranged from 0.1–3 mM. The slopes from the linear range of the progress curves of absorbance at 475 nm vs. time were recorded as apparent velocities and the reciprocal values, 1/v, were plotted as functions of the reciprocal values of the substrate concentrations at different fixed inhibitor concentrations according to the method of Lineweaver and Burk (L-B). Dixon plots of the reciprocal velocity values, (1/v), as functions of the inhibitor concentrations at different fixed substrate concentrations were also constructed to investigate further the apparent mode of inhibition by the compounds.
We have also analyzed the inhibition data using nonlinear curve fitting algorithms which are more robust than the linearized L-B and Dixon plotting methods that can weigh the data from evenly spaced concentrations disproportionately. The inhibition constants were calculated by non-linear least squares curve fitting using a modified Levenberg-Marquardt algorithm and data was fitted to models of pure competitive, noncompetitive, and uncompetitive inhibition using Enzfitter software (version 2.0, Biosoft, Cambridge, UK). This analysis was undertaken to assess the apparent potency of compounds, PC, CMC2.24, and CMC2.23 for each putative mode of inhibition.

[1] = DPPH radical scavenging antioxidant assay; details: 60 μM DPPH, 30 min
Method: Melanin production catalyzed by the tyrosinase pathway is often associated with higher levels of oxidative stress and reactive oxygen species (ROS) generation. […] DPPH (2,2-Diphenyl-1-picrylhydrazyl) is a stable free radical which changes color from purple to yellow upon reduction by antioxidant compounds. Briefly, 180 µL of DPPH reagent that was prepared in methanol was combined with 20 µL of different concentrations of the compounds in a 96-well plate to give a final DPPH concentration of 60 μM in each well. A control group consisted of DPPH only while ascorbic acid (AA) at 20 µM was used as a positive control. The plate was covered and incubated for 30 min, after which the absorbance was read at 517 nm and the DPPH radical scavenging activity was reported as % of control.

[2] = tested on: B16F10 mouse melanoma cells; experiment: MTS cell viability assay; type: cell-based; details: for cell viability / cytotoxicity: 48 h; for cell viability: B16F10; for cytotoxicity: B16F10, full concentration range
Method: B16F10 mouse melanoma cells (CRL-6475™) were obtained from American Type Culture Collection (ATCC, Manassas, VA, USA) and cultured using Dulbecco’s Modified Eagle Medium (DMEM) supplemented with 10% heat-inactivated fetal bovine serum (HI-FBS) and 1% antibiotics (penicillin-streptomycin) in a humidified incubator with 95% air—5% CO2 at 37 °C. In order to test the four CMCs (CMC2.14, CMC2.24, CMC2.5 and CMC2.23) to that of PC, for their effects on melanin content, we first screened them for cytotoxicity using a tetrazolium assay with MTS (Promega CellTiter Aqueous One). Briefly, B16F10 cells were seeded at 4 × 10^3 cells/well in a 96-well plate for 24 h. The compounds were diluted using culture medium to yield a final DMSO in all groups of 0.16% and added to the cell monolayers in wells after 24 h. Control was treated with 0.16% DMSO. At the end of 48 h, the medium was aspirated and replaced by 100 μL of fresh medium. 20 μL of MTS reagent was then added, and the plate was incubated at 37 °C for 40 min. At this point, the absorbance of 100 μL aliquots was read at 490 nm using a microplate reader. Cell viability was calculated from the absorbance values relative to control groups and expressed in %.

[3] = tested on: tyrosinase activity in B16F10 cells; experiment: Intracellular tyrosinase activity in B16F10 cell lysates; type: cell-based, mouse; details: 48 h
Method: B16F10 cells (4 × 10^4 cells/well in 1 mL medium) were cultured in 24-well plates for 24 h. After that, the medium was replaced by fresh medium containing the compounds, and further incubated for 48 h. At the end of treatments, the cells were harvested, and cell pellets were washed in PBS and lysed and then centrifuged. Lysates (50 µL) were then aliquoted in a 96-well plate and 150 µL of 3 mM L-DOPA was added. The absorbance was measured at 475 nm every 30 s for 40 min at 30 °C using a microplate reader in the kinetic mode. The tyrosinase activity was calculated from the slope of the linear range of the velocity in the presence of each test compound and normalized to the total protein content and reported as % of control.

[4] = tested on: MITF protein in B16F10 cells; experiment: MITF protein levels by cell-based ELISA; parameters: species or system mouse; details: 48 h
Method: Microphthalmia Transcription Factor (MITF), a known transcription factor for the tyrosinase gene, is a master regulator of melanogenesis and is activated by cyclic adenosine monophosphate (cAMP) signaling after UV irradiation, reflecting the role of cAMP as a key maturation factor in melanogenesis. The effects of PC and CMCs on MITF protein levels were assayed using a cell-based ELISA (Lifespan Biosciences, Seattle, WA, USA). Briefly, B16F10 cells were cultured in a 96-well plate at 1 × 10^4 cells/well for 24 h and then the medium was replaced with fresh medium containing compounds in 0.1% DMSO and cultures maintained for further 48 h. The cells were then fixed, and subsequent steps were conducted according to the manufacturers’ instructions. MITF protein levels were normalized to cell density by measuring the absorbance of crystal violet stain added to the fixed cells and the data was reported as % of control.

Sequence of mushroom tyrosinase (C7FF04 1-392): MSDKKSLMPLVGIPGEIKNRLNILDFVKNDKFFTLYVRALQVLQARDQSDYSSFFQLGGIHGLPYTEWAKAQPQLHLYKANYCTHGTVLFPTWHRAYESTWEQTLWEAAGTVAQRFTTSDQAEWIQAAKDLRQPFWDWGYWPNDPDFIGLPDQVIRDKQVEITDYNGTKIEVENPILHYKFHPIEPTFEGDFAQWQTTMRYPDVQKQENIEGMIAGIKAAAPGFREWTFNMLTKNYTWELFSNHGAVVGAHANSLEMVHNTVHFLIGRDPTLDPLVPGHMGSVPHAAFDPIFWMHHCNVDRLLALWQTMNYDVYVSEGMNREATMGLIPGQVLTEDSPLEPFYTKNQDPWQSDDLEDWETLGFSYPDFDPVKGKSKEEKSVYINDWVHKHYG

Compound | mechanism of inhibition of diphenolase activity (mushroom tyrosinase) | Vmax, diphenolase (L-DOPA) (mushroom tyrosinase; competitive model fit) | Vmax, diphenolase (L-DOPA) (mushroom tyrosinase; noncompetitive model fit) | Vmax, diphenolase (L-DOPA) (mushroom tyrosinase; uncompetitive model fit) | DPPH radical scavenging activity [1] | suppression of intracellular tyrosinase activity ([3]; 10 µM) | attenuation of MITF protein levels ([4]; 10 µM) | diphenolase inhibitory potency (mushroom tyrosinase) | suppression of intracellular tyrosinase activity ([3]; 5 µM) | cytotoxicity [2] | suppression of intracellular tyrosinase activity ([3]; 20 µM) | suppression of intracellular tyrosinase activity ([3]; 25 µM) | attenuation of MITF protein levels ([4]; 20 µM) | attenuation of MITF protein levels ([4]; 25 µM) | further results
1,7-bis(4-hydroxy-3-methoxyphenyl)-1,6-heptadien-3,5-dione [PC, reference compound] | not a pure competitive inhibitor; also recorded: mixed inhibitor | 44.67 mM/min | 48.28 mM/min | 47.52 mM/min | high radical scavenging activity | 47.85% | 28.62% | – | – | – | – | – | – | – | inhibition of diphenolase activity (mushroom tyrosinase; 5 μM compound): 14.47%; inhibition of diphenolase activity (mushroom tyrosinase; 10 μM compound): 12.41%; inhibition of diphenolase activity (mushroom tyrosinase; 20 μM compound): 14.19%; inhibition of diphenolase activity (mushroom tyrosinase; 25 μM compound): 16.39%; Ki (mushroom tyrosinase; fit to pure competitive inhibition): 45.1 µM; Ki (mushroom tyrosinase; fit to pure noncompetitive inhibition): 164 µM; Ki (mushroom tyrosinase; fit to pure uncompetitive inhibition): 129 µM; IC50 (mushroom tyrosinase; fixed substrate concentration (L-DOPA), read-out: IC50 for Diphenolase inhibition): 299 ± 35.6 µM; cell viability ([2]; 20 µM): 29.47%; cell viability ([2]; 25 µM): 30.83%; concentrations with significant cytotoxicity ([2]; B16F10, 48 h): > 10 µM
COC(=O)/C(C(=O)/C=C/c1ccc(O)cc1)=C(O)\C=C\c1ccc(O)cc1 [CMC2.14] | – | – | – | – | did not demonstrate such activity | 50.31% | 23.67% | somewhat weaker inhibitory potency | 47.96% | – | – | – | – | – | –
O=C(/C=C/c1ccc(O)cc1)/C(C(=O)Nc1ccccc1)=C(O)/C=C/c1ccc(O)cc1 [CMC2.24] | mixed mode of inhibition with a predominantly competitive mechanism | 36.0 mM/min | 43.69 mM/min | 41.99 mM/min | did not demonstrate such activity | 53.76% | 28.39% | – | 38.6% | nontoxic over the full concentration range | 64.25% | 68.81% | 31.79% | 38.84% | inhibition at 20 µM (mushroom tyrosinase; 20 μM compound): 35.4%; inhibition at 25 µM (mushroom tyrosinase; 25 μM compound): 38.2%
COC(=O)/C(C(=O)/C=C/c1ccc(O)c(OC)c1)=C(O)\C=C\c1ccc(O)c(OC)c1 [CMC2.5, 4-methoxycarbonyl curcumin] | – | – | – | – | significant radical scavenging activity | 19.98% | – | somewhat weaker inhibitory potency | – | nontoxic over the full concentration range | 23.16% | 26% | 32.17% | 35.4% | –
COc1cc(/C=C/C(=O)/C(C(=O)Nc2ccccc2)=C(O)/C=C/c2ccc(O)c(OC)c2)ccc1O [CMC2.23] | mixed mechanism of inhibition; also recorded: mixed, but predominantly competitive, mode of inhibition | 38.0 mM/min | 39.05 mM/min | 39.0 mM/min | significant radical scavenging activity | 30.04% | 32.27% | somewhat weaker inhibitory potency | – | nontoxic over the full concentration range | 44.64% | 51.47% | 39.29% | 37.22% | –
